Data published in patent US6605642B2, “Inhibitors of formation of advanced glycation endproducts (AGES)” (City of Hope, priority 1999, dated 2003).

Experiments:
Type in all cases: biochemical
[1] = molecular target: T1, hemoglobin (HbA1C formation) (Homo sapiens, UniProt P68871+P69905); test: Hemoglobin-δ-Gluconolactone (δ-Glu) assay, early stage glycation; conditions: 1 millimole/L inhibitor, δ-Glu treated whole blood, 16 hours at 37° C.
T1 construct: δ-Glu, an oxidized analogue of glucose, can react rapidly with hemoglobin within the red cells; from tissue; host or cells: fresh whole blood (red blood cells) from normal volunteers
T1 sequence (P68871 2-147 limits assumed): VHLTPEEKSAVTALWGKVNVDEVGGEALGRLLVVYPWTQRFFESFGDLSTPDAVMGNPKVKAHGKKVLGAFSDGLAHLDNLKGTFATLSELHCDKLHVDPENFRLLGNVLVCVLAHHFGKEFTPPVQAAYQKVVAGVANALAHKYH
T1 sequence (P69905 2-142 limits assumed): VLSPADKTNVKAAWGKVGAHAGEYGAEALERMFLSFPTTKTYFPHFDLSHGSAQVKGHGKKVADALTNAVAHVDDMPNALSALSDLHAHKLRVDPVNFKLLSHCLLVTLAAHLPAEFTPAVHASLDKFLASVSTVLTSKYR
Protocol: The δ-Glu assay is a specific method for investigation of inhibitors of the early stage of glycation. Evaluation of early glycation products (Amadori) formation on hemoglobin (HbA1C) is performed by incubating red blood cells with an oxidized form of glucose in the presence and the absence of the inhibitor compound followed by determination of HbA1C in the test versus the control (Rahbar and Nadler., 1999). […] By contrast, glucose requires weeks for an equivalent reaction to occur. We have used this finding to devise an assay method to measure early stage glycation of hemoglobin (Amadori product) and an assay to evaluate the ability of an inhibitor to inhibit HbA1C formation. Briefly, fresh blood was drawn in potassium-EDTA and prepared for incubation within 30 minutes of collection by mixing 200 μL of blood with 40 μL of either phosphate buffered-saline (PBS), pH 7.4, alone, PBS containing 50 millimoles/L δ-Glu (Sigma), or PBS containing 50 millimoles/L δ-Glu plus 1 millimole/L inhibitor. After incubation for 16 hours at 37° C., the percentage of glycated hemoglobin present was determined. The percentage of glycated Hb (HbA1C) was determined using a dedicated ion-exchange HPLC system (BIORAD DIAMAT). Blood samples were analyzed in triplicate. The % inhibition of HbA1C formation by the compound was calculated according to the following formula: […]
where A is HbA1C concentration in the baseline control tube not treated with δ-Glu, B is the HbA1C concentration in blood incubated with δ-Glu, C is the HbA1C content of the test tube treated both with δ-Glu and the inhibitor compound.
The amount of (HbA1C) formation using δ-Glu treated whole blood from normal volunteers using 1 millimole/L of the compounds is shown in FIG. 1. Levels of HbA1C in the δ-Glu treated blood is twice as high as the baseline control. Various inhibitors (compounds LR93-LR102) show different levels of HbA1C depending on their inhibitory potencies.

BSA = molecular target: T2, BSA (Bos taurus, UniProt P02769); test: BSA-Glucose assay, glucose-mediated development of fluorescence of BSA; conditions: 7 days at 37° C., fluorescence 330/410 nm; for Percent Inhibition in the BSA-Glucose Assay: 1 millimole/L inhibitor
T2 construct: BSA (fraction V, essentially fatty acid free, low endotoxin) from Sigma; purchased Sigma
T2 sequence (P02769 25-607): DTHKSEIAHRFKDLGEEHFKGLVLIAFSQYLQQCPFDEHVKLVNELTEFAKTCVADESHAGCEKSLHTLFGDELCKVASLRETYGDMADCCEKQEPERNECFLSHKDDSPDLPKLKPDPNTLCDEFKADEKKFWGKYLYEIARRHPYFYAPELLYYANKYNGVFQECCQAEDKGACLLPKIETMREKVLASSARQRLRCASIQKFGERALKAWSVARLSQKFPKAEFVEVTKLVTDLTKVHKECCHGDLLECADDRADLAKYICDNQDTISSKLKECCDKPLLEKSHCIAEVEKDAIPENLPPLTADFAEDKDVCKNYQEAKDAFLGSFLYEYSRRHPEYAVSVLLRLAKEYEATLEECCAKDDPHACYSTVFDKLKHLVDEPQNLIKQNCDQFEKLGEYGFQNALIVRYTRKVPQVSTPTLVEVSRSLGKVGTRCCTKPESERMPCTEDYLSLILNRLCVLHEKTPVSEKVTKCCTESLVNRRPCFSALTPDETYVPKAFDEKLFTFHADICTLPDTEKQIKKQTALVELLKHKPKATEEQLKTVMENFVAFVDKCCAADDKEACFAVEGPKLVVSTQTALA
Protocol: This test is used to evaluate the ability of the inhibitors to inhibit glucose-mediated development of fluorescence of BSA (Ikeda et al., 1996). Triplicate samples of BSA (fraction V, essentially fatty acid free, low endotoxin) from Sigma 50 mg/mL and 800 mM glucose (144 mg/mL) in […] phosphate buffer pH 7.4 containing NaN3 0.2 g/L was incubated under aseptic conditions at 37° C. for 7 days in the presence or absence of various concentrations of the compounds. After 7 days of incubation each sample was examined for the development of specific fluorescence (excitation, 330 nm; emission, 410 nm). The % inhibition of AGE formation in the test sample versus control was calculated for each inhibitor compound. Aminoguanidine (50 mM) was used as a positive control.
This assay method is mostly for the inhibitors of late glycation and AGE formation (post-Amadori). The results obtained by this assay show all ten compounds investigated here have strong inhibitory effects on post-Amadori glycation, AGE formation and AGE crosslinking.

G.K. peptide = test: N-Acetyl-Glycyl-Lysine Methyl Ester (G.K. Peptide)-Ribose assay; conditions: 24 hours at 37° C., fluorescence 330/415 nm; for Percent Inhibition in the G.K.-Ribose Assay: 1 millimole/L inhibitor
Protocol: Evaluation of the late glycation products (AGEs), and AGE-inhibition by the new inhibitor compounds was tested by incubation of G.K. peptide in ribose in the presence or the absence of the agent, followed by determination of chromophores generated in the course of glycation and AGE formation through determination of their specific fluorescence. The Nagaraj et al. (1996) method used to evaluate the ability of the compounds of the present invention to inhibit the crosslinking of N-acetylglycyl-lysine methyl ester in the presence of ribose was as follows: Stock Solutions: 0.5 M sodium phosphate buffer pH 7.4 containing NaN3 0.2 g/L GK peptide (Sigma) 80 mg/mL in 0.5 M sodium phosphate buffer pH 7.4 Ribose 800 mM (120 mg/mL) in 0.5 M phosphate buffer Triplicate samples of equal volumes (0.1 mL) of the 3 stock solutions were mixed together, filtered through a 0.2 micron filter (Corning) and incubated under aseptic conditions for 24 hours at 37° C. The inhibitor compounds were added to a final concentration of 1 millimole/L. At the end of the incubation period, samples were analyzed for their specific fluorescence (excitation, 330 nm; emission, 415 nm). The % inhibition by different concentrations of inhibitor was calculated as described above. Aminoguanidine was used at 50 mM as a positive control. […] The results of this assay indicate that all ten compounds investigated here have strong inhibitory effects and block specific fluorescence of proteins AGE in these separate determinations.

[2] = molecular target: T3, collagen-AGE-BSA crosslinking (Bos taurus, UniProt P02769); test: ELISA assay, crosslinking of AGE-BSA to rat tail-tendon-collagen coated plate; conditions: for Inhibition of AGE-protein crosslinking (in words): ELISA, FIGS. 4A-C, 0.1-0.5 mM; for Effectiveness relative to pyridoxamine, inhibition of AGE-protein-crosslinking: compared with pyridoxamine (Khalifah et al., 1999)
T3 construct: purchased Becton Dickinson
T3 sequence (P02769 25-607): as above
Protocol: A special ELISA technique (Al-abed et al., 1999) was used to evaluate the ability of the compounds being studied to inhibit the crosslinking of glycated-BSA (AGE-BSA) to a rat tail-tendon-collagen coated 96 well plate (Biocoat Cell Environment, Becton Dickinson). Crosslinking of AGE-BSA to a rat tail-tendon-collagen coated plate was performed with and without the testing compound at the desired concentrations. The uncross-linked AGE-BSA was then removed by washing the wells. The AGE-BSA crosslinked to the tail-tendon-collagen coated plate was then quantified by a polyclonal antibody raised against AGE-RNase in our laboratory. Positive results in the assay indicate that the inhibitor is capable of reducing the amount of AGE-BSA which crosslinks with collagen. Aminoguanidine was used as positive control.

Structure (SMILES) | Percent Inhibition of HbA1c formation in the δ-Glu Assay [1] [%] | inhibition at 50000 µM (BSA; aminoguanidine 50 mM, read-out: Percent Inhibition in the BSA-Glucose Assay (positive control)) [%] | Percent Inhibition in the G.K.-Ribose Assay (positive control) (G.K. peptide; aminoguanidine 50 mM) [%] | Percent Inhibition in the BSA-Glucose Assay (BSA) [%] | Percent Inhibition in the G.K.-Ribose Assay (G.K. peptide) [%] | Inhibition of AGE-protein crosslinking (in words) [2] | Effectiveness relative to pyridoxamine, inhibition of AGE-protein-crosslinking [2] [times]
N=C(N)NN [AG, aminoguanidine, reference compound] | 12.1 | 74 | 67 |  |  |  | 
CC(C)(Oc1ccc(Cl)cc1)C(=O)NC1(C(=O)O)CCCCC1 [LR93] | 49.2 |  |  | 35 | 42.8 |  | 
CC(C)(Oc1ccc(NC(=O)Nc2cc(Cl)cc(Cl)c2)cc1)C(=O)N1CCCCC1C(=O)O (stereo not shown) [LR94] | 28.5 |  |  | 26.8 | 33.7 |  | 
CC(C)C[C@H](NC(=O)C(C)(C)Oc1ccc(NC(=O)Nc2cc(Cl)cc(Cl)c2)cc1)C(=O)O [LR95] | 61.9 |  |  | 34 | 29.5 |  | 
COC(=O)CC[C@H](NC(=O)C(C)(C)Oc1ccc(NC(=O)Nc2cc(Cl)cc(Cl)c2)cc1)C(=O)O [LR96] | 57.1 |  |  | 30 | 42.4 | strong inhibitors of AGE-protein crosslinking | 2 to 3
CC(C)(Oc1ccc(NC(=O)Nc2cc(Cl)cc(Cl)c2)cc1)C(=O)NCCCC(=O)O [LR97] | 36.5 |  |  | 26.2 | 33.3 |  | 
CC(C)(Oc1ccc(NC(=O)Nc2cc(Cl)cc(Cl)c2)cc1)C(=O)NCC(=O)O [LR98] | 42.8 |  |  | 26.7 | 37.3 |  | 
CC(C)(Oc1ccc(NC(=O)Nc2cc(Cl)cc(Cl)c2)cc1)C(=O)Nc1ccc(C(=O)O)cc1 [LR99] | 53.9 |  |  | 30.9 | 39.5 | strong inhibitors of AGE-protein crosslinking | 2 to 3
CC(C)(Oc1ccc(NC(=O)Nc2cc(Cl)cc(Cl)c2)cc1)C(=O)NC1(C(=O)O)CCCC1 [LR100] | 52.4 |  |  | 31.9 | 28.5 |  | 
